Active and inactive are the calls of the source. No cut-off for these calls is given here.
Assays:
HUVEC [1] = assay: Cytotoxicity against HUVEC after 48 hrs by MTT assay; type: cell-based; details: Homo sapiens
A549 [2] = assay: Induction of apoptosis in human A549 cells assessed as viable cells at 0.5 uM after 48 hrs by Annexin-V/propidium iodide staining based flow cytometric method (reference value: 92.05%); type: functional; details: A549, 48 h, read-out: Activity
HUVEC [3] = assay: Antiangiogenic activity in HUVEC assessed as inhibition of capillary like tube formation in matrigel at 0.4 uM after 24 hrs by matrigel-based inverted microscopic analysis relative to control; type: functional; details: Homo sapiens
HUVEC [4] = assay: Antiangiogenic activity in HUVEC assessed as inhibition of capillary like tube formation in matrigel at 0.2 uM after 24 hrs by matrigel-based inverted microscopic analysis; type: functional, cell-based; details: Homo sapiens
A549 [5] = assay: Inhibition of colony formation in human A549 cells after 48 hrs by crystal violet staining based assay; type: functional, cell-based
A2780 [6] = assay: Antiproliferative activity against human A2780 cells assessed as reduction in cell viability after 48 hrs by MTT assay; type: functional, cell-based; details: A2780, 48 h
HeLa = assay: Antiproliferative activity against human HeLa cells assessed as reduction in cell viability after 48 hrs by MTT assay; type: functional, cell-based
HCT-116 = assay: Antiproliferative activity against human HCT116 cells assessed as reduction in cell viability after 48 hrs by MTT assay; type: functional, cell-based; details: HCT-116, 48 h
A549 [7] = assay: Antiproliferative activity against human A549 cells assessed as reduction in cell viability after 48 hrs by MTT assay; type: functional, cell-based; details: A549, 48 h
Tubulin (Homo sapiens) = Tubulin (Homo sapiens) (UniProt P68371+Q9H4B7+P0DPH7+P68366+Q13509+Q71U36+P04350+Q3ZCM7+P07437+P68363+Q9BQE3+Q6PEY2+Q13885+Q9BVA1+Q9BUF5); assay: Induction of tubulin depolymerization in human HeLa cells after 24 hrs by DAPI staining based fluorescence microscopic analysis; type: cell-based
[8] = Binding affinity to human katanin by MST assay
[9] = target: Katanin p60 ATPase-containing subunit A1 (Homo sapiens) (UniProt O75449); assay: Inhibition of Katanin p60 degradation in human A549 cells preincubated for 15 mins followed by compound addition in presence of cycloheximide by immunoblotting analysis; type: cell-based
Chain of Katanin p60 ATPase-containing subunit A1 (Homo sapiens) (O75449 whole entry): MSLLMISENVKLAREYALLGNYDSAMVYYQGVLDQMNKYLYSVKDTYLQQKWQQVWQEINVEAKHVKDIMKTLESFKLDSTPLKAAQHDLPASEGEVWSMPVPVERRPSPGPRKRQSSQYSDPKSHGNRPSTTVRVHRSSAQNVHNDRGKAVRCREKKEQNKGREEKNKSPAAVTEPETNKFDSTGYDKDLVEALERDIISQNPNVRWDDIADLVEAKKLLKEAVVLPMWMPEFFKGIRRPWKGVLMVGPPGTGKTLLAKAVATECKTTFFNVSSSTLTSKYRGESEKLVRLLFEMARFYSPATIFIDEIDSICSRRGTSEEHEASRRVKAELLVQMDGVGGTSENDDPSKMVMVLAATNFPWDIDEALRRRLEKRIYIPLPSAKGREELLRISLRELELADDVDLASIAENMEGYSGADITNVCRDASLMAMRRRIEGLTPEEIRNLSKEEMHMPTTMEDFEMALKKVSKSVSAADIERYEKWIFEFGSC

A549 [10] = assay: Antiproliferative activity against human A549 cells harboring control siRNA after 48 hrs by MTT assay; type: functional, cell-based; details: A549, 48 h
A549 [11] = assay: Antiproliferative activity against human A549 cells harboring katanin siRNA after 48 hrs by MTT assay; type: functional, cell-based; details: A549, 48 h
A549 [12] = assay: Cell cycle arrest in human A549 cells assessed as accumulation of cells at G2/M phase at 0.5 to 2 uM after 24 hrs by RNase A/propidium iodide staining-based flow cytometric analysis; type: functional
A549 [13] = assay: Cell cycle arrest in human A549 cells after 24 hrs by RNase A/propidium iodide staining-based flow cytometric analysis; type: functional
A549 [14] = assay: Cell cycle arrest in human A549 cells assessed as increase in cyclin B1 expression at 0.5 to 2 uM after 24 hrs by immunoblotting analysis; type: functional, cell-based
A549 [15] = assay: Cell cycle arrest in human A549 cells assessed as increase in p21 expression at 0.5 to 2 uM after 24 hrs by immunoblotting analysis; type: functional, cell-based
A549 [16] = assay: Cell cycle arrest in human A549 cells assessed as increase in histone 3 phosphorylation at 0.5 to 2 uM after 24 hrs by immunoblotting analysis; type: functional, cell-based
Tubulin (Sus scrofa) = Tubulin (Sus scrofa) (UniProt P02554+P02550); assay: (§1) Inhibition of pig brain tubulin polymerization measured every 1 min for 25 mins by spectrophotometric method
Chain of Tubulin (Sus scrofa) (P02550 whole entry, looked up): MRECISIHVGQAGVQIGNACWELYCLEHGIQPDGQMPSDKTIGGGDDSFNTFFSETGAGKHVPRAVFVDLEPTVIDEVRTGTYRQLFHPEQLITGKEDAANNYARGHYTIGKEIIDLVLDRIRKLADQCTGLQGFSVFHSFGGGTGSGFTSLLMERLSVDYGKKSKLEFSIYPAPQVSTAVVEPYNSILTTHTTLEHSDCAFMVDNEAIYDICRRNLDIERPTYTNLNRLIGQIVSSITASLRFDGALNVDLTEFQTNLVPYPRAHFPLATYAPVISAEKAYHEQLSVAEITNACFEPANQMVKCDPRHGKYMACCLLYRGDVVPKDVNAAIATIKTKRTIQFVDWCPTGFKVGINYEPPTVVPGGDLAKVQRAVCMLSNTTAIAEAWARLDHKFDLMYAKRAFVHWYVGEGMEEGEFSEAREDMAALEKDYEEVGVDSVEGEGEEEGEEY
Chain of Tubulin (Sus scrofa) (P02554 whole entry, looked up): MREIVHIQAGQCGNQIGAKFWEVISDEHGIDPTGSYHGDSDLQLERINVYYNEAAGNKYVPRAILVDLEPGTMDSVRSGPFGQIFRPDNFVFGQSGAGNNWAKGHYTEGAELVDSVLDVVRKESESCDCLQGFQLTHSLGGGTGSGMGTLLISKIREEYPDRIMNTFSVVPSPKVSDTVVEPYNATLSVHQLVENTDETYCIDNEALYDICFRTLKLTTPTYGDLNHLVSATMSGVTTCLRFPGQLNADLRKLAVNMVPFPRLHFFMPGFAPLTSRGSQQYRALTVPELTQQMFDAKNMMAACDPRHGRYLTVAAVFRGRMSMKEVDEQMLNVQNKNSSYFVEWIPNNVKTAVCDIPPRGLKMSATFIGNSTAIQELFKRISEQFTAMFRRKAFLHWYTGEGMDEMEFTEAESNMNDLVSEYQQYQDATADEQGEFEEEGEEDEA

Tubulin = Tubulin (Sus scrofa, UniProt P02554+P02550); assay: as §1
A549 [17] = assay: Induction of apoptosis in human A549 cells assessed as early apoptotic cells at 0.5 uM after 48 hrs by Annexin-V/propidium iodide staining based flow cytometric method (reference value: 0.51%); type: functional
A549 [18] = assay: Induction of apoptosis in human A549 cells assessed as late apoptotic cells at 0.5 uM after 48 hrs by Annexin-V/propidium iodide staining based flow cytometric method (reference value: 1.18%); type: functional
A549 [19] = assay: Induction of apoptosis in human A549 cells assessed as necrotic cells at 0.5 uM after 48 hrs by Annexin-V/propidium iodide staining based flow cytometric method (reference value: 6.26%); type: functional
A549 [20] = assay: Induction of apoptosis in human A549 cells assessed as viable cells at 1 uM after 48 hrs by Annexin-V/propidium iodide staining based flow cytometric method (reference value: 92.05%); type: functional; details: A549, 48 h, read-out: Activity
A549 [21] = assay: Induction of apoptosis in human A549 cells assessed as early apoptotic cells at 1 uM after 48 hrs by Annexin-V/propidium iodide staining based flow cytometric method (reference value: 0.51%); type: functional
A549 [22] = assay: Induction of apoptosis in human A549 cells assessed as late apoptotic cells at 1 uM after 48 hrs by Annexin-V/propidium iodide staining based flow cytometric method (reference value: 1.18%); type: functional
A549 [23] = assay: Induction of apoptosis in human A549 cells assessed as necrotic cells at 1 uM after 48 hrs by Annexin-V/propidium iodide staining based flow cytometric method (reference value: 6.26%); type: functional
A549 [24] = assay: Induction of apoptosis in human A549 cells assessed as viable cells at 2 uM after 48 hrs by Annexin-V/propidium iodide staining based flow cytometric method (reference value: 92.05%); type: functional; details: A549, 48 h, read-out: Activity
A549 [25] = assay: Induction of apoptosis in human A549 cells assessed as early apoptotic cells at 2 uM after 48 hrs by Annexin-V/propidium iodide staining based flow cytometric method (reference value: 0.51%); type: functional
A549 [26] = assay: Induction of apoptosis in human A549 cells assessed as late apoptotic cells at 2 uM after 48 hrs by Annexin-V/propidium iodide staining based flow cytometric method (reference value: 1.18%); type: functional
A549 [27] = assay: Induction of apoptosis in human A549 cells assessed as necrotic cells at 2 uM after 48 hrs by Annexin-V/propidium iodide staining based flow cytometric method (reference value: 6.26%); type: functional
A549 [28] = assay: Induction of apoptosis in human A549 cells after 48 hrs by Annexin-V/propidium iodide staining based flow cytometric method; type: functional, cell-based
A549 [29] = assay: Induction of apoptosis in human A549 cells assessed as PARP cleavage at 2 to 8 uM after 48 hrs by immunoblotting analysis; type: functional, cell-based
A549 [30] = assay: Induction of apoptosis in human A549 cells assessed as increase in Bad expression level at 2 to 8 uM after 48 hrs by immunoblotting analysis; type: functional, cell-based
A549 [31] = assay: Induction of apoptosis in human A549 cells assessed as increase in p53 expression level at 2 to 8 uM after 48 hrs by immunoblotting analysis; type: functional, cell-based
[32] = AUC (0 to 24 hrs) in ICR mouse at 50 mg/kg, ip after 0.08 to 24 hrs by HPLC-MS/MS analysis; type: ADME, organism-based; design: time < 24 hr, dose 50 mg/kg, route intraperitoneal; details: in vivo
[33] = AUC(0 to infinity) in ICR mouse at 50 mg/kg, ip after 0.08 to 24 hrs by HPLC-MS/MS analysis; type: ADME, organism-based; design: dose 50 mg/kg, time infinity, route intraperitoneal; details: in vivo
[34] = Cmax in ICR mouse at 50 mg/kg, ip after 0.08 to 24 hrs by HPLC-MS/MS analysis; type: ADME, organism-based; design: dose 50 mg/kg, route intraperitoneal; details: in vivo
[35] = Tmax in ICR mouse at 50 mg/kg, ip after 0.08 to 24 hrs by HPLC-MS/MS analysis; type: ADME, organism-based; details: in vivo
[36] = Half life in ICR mouse at 50 mg/kg, ip after 0.08 to 24 hrs by HPLC-MS/MS analysis; type: ADME, organism-based; details: in vivo
[37] = Apparent volume of distribution in ICR mouse at 50 mg/kg, ip after 0.08 to 24 hrs by HPLC-MS/MS analysis; type: ADME, organism-based; details: in vivo
[38] = Apparent oral clearance ICR mouse at 50 mg/kg, ip after 0.08 to 24 hrs by HPLC-MS/MS analysis; type: ADME, organism-based; details: in vivo
[39] = MRT in ICR mouse at 50 mg/kg, ip after 0.08 to 24 hrs by HPLC-MS/MS analysis; type: ADME, organism-based; details: in vivo
A2780 [40] = assay: Antitumour activity against human A2780 cells xenografted in Balb/c mouse assessed as reduction in tumour volume at 25 to 50 mg/kg, ip administered every other day by caliper method; type: functional, organism-based
[41] = Toxicity in Balb/c mouse xenografted with human A2780 cells assessed effect on body weight at 25 to 50 mg/kg, ip administered every other day; type: organism-based; details: in vivo
A2780 [42] = assay: Antitumour activity against human A2780 cells xenografted in Balb/c mouse assessed as reduction in tumour weight at 25 to 50 mg/kg, ip administered every other day; type: functional, organism-based

IC50 (A2780 [6]): 210 nM | IC50 (HeLa): 250 nM | IC50 (HCT-116): 170 nM | IC50 (A549 [7]): 400 nM | Activity (Tubulin (Homo sapiens)): Dose-dependent effect | Kd [8]: 12700 nM | inhibition [9]: inactive | IC50 (A549 [10]): 340 nM | IC50 (A549 [11]): 1480 nM | inhibition (Tubulin (Sus scrofa)): Dose-dependent effect | IC50 (Tubulin): 8400 nM | AUC(0-t) at 24 h [32]: 2630 ng·h/mL | AUC(0-inf) [33]: 2950 ng·h/mL | Cmax [34]: 580 ng/mL | Tmax [35]: 0.23 h | half-life [36]: 9.36 h | Vd/F [37]: 4625.07 mL | CL/F [38]: 5.73 mL/min | MRT [39]: 8.39 h
SMILES: COc1ccc(-c2cc3c([nH]c(=O)n3-c3cc(OC)c(OC)c(OC)c3)c(C(N)=O)n2)cc1O
IC50 (HUVEC [1]): > 10000 nM | viability at 0.5 µM (A549 [2]): 79.7% | inhibition at 0.4 µM (HUVEC [3]): 100% | inhibition (HUVEC [4]): Active | inhibition (A549 [5]): Dose-dependent effect | inhibition (A549 [12]): Active | inhibition (A549 [13]): Dose-dependent effect | Activity (A549 [14]): Active | Activity (A549 [15]): Active | Activity (A549 [16]): Active | Activity (A549 [17]): 7.51% | Activity (A549 [18]): 5.43% | Activity (A549 [19]): 7.34% | viability at 1 µM (A549 [20]): 65.1% | Activity (A549 [21]): 15.85% | Activity (A549 [22]): 8.69% | Activity (A549 [23]): 10.33% | viability at 2 µM (A549 [24]): 42.2% | Activity (A549 [25]): 36.48% | Activity (A549 [26]): 14.08% | Activity (A549 [27]): 7.2% | Activity (A549 [28]): Dose-dependent effect | Activity (A549 [29]): Active | Activity (A549 [30]): Active | Activity (A549 [31]): Active | Activity (A2780 [40]): Active | Activity [41]: Non-Toxic | Activity (A2780 [42]): Active

Source: ChEMBL document CHEMBL4359815, “Design, synthesis, antitumor activities and biological studies of novel diaryl substituted fused heterocycles as dual ligands targeting tubulin and katanin” (Eur J Med Chem, 2019)
